Earlier results, collected in PMC8739290, “A phase 1b study of erlotinib and momelotinib for the treatment of EGFR-mutated, tyrosine kinase inhibitor-naive metastatic non-small cell lung cancer” (Cancer Chemotherapy and Pharmacology, 2021).

Columns and labels:
[1] = tested on: PC-9 xenograft tumors and EGFR-mutant transgenic mice; design: method as in PMID 24238495; conditions: cited from earlier work
EGFR-mutated NSCLC lines = tested on: EGFR-mutated NSCLC lines; design: method as in PMID 18060032; conditions: multiple EGFR-mutated NSCLC lines; cited from earlier work
HCC827 xenograft model = tested on: HCC827 xenograft model; design: method as in doi:10.1158/1538-7445.AM2018-2938; conditions: cited from earlier work

Cc1cc(Nc2nc(N[C@@H](C)c3ncc(F)cn3)ncc2Cl)n[nH]1 [AZD1480]
single-agent activity ([1]; PC-9 xenograft tumors and EGFR-mutant transgenic mice): independent activity | number of lung tumors [1]: decreased number of lung tumors | overall survival [1]: improved overall survival

CC(C)(C)c1nc2c3ccc(F)cc3c3c(=O)[nH]ccc3c2[nH]1 [P6]
effect on cell cycle (EGFR-mutated NSCLC lines): cell-cycle arrest at the G2/M phase | effect on colony formation (EGFR-mutated NSCLC lines): suppressed colony formation | effect on phosphorylated-STAT3 (pSTAT3) (EGFR-mutated NSCLC lines): uniformly abrogated pSTAT3

N#CCC1(n2cc(-c3ncnc4[nH]ccc34)cn2)CN(C2CCN(C(=O)c3ccnc(C(F)(F)F)c3F)CC2)C1 [itacitinib]
single-agent activity (HCC827 xenograft model; HCC827 xenograft model): independent activity | tumor growth inhibition in combination (HCC827 xenograft model; itacitinib in combination with erlotinib or osimertinib): synergistic tumor growth inhibition
